This note sets out measurements from patent US9271978B2 (Zenith Epigenetics Corp., priority 2012, dated 2016).

Experiment [1] has as its target T1, second bromodomain of Brd2 (BRD2(2)) (Homo sapiens, UniProt P25440).
T1 construct: made in house; host or cells: E. coli BL21 (DE3)
Kind of experiment: Inhibition of tetra-acetylated histone H4 binding to Brd2 bromodomain 2 (TR-FRET). Set-up: key: Active: Compounds with an IC50 value less than 30 μM were deemed to be active.; Not Active: Compounds with an IC50 value less than 30 μM were deemed to be active. Conditions: tetra-acetylated histone H4 peptide, active = IC50 <30 μM. The method, then: (§1) Proteins were cloned and overexpressed with a N-terminal 6×His tag, then purified by nickel affinity followed by size exclusion chromatography. Briefly, E. coli BL21 (DE3) cells were transformed with a recombinant expression vector encoding N-terminally Nickel affinity tagged bromodomains from Brd2, Brd3, Brd4. Cell cultures were incubated at 37° C. with shaking to the appropriate density and induced overnight with IPTG. The supernatant of lysed cells was loaded onto Ni-IDA column for purification. Eluted protein is pooled, concentrated and further purified by size exclusion chromatography. Fractions representing monomeric protein were pooled, concentrated, aliquoted, and frozen at −80° C. for use in subsequent experiments.
(§2) Binding of tetra-acetylated histone H4 and BET bromodomains was confirmed by a Time Resolved Fluorescence Resonance Energy Transfer (TR-FRET) method. N-terminally His-tagged bromodomains (200 nM) and biotinylated tetra-acetylated histone H4 peptide (25-50 nM, Millipore) were incubated in the presence of Europium Cryptate-labeled streptavidin (Cisbio Cat. #610SAKLB) and XL665-labeled monoclonal anti-His antibody (Cisbio Cat. #61HISXLB) in a white 96 well microtiter plate (Greiner). For inhibition assays, serially diluted test compound was added to these reactions in a 0.2% final concentration of DMSO. Final buffer concentrations were 30 mM HEPES pH 7.4, 30 mM NaCl, 0.3 mM CHAPS, 20 mM phosphate pH 7.0, 320 mM KF, 0.08% BSA). After a 2-h incubation at room temperature, the fluorescence by FRET was measured at 665 and 620 nm by a SynergyH4 plate reader (Biotek). Illustrative results with the first bromodomain of Brd4 and the second bromodomain of Brd2 are shown below. The binding inhibitory activity was shown by a decrease in 665 nm fluorescence relative to 620 nm. IC50 values were determined from a dose response curve.
(In TR-FRET formats the signal depends on donor and acceptor labels being close together.)

The target of experiment [2] is T2, Brd4 bromodomain 1 (BRD4(1)) (Homo sapiens, UniProt O60885).
T2 construct: Illustrative results with the first bromodomain of Brd4; made in house; host or cells: E. coli BL21 (DE3)
Kind of experiment: Inhibition of tetra-acetylated histone H4 binding to Brd4 bromodomain 1 (TR-FRET). Conditions: tetra-acetylated histone H4 peptide, active = IC50 <30 μM. Set-up: key: Active: Compounds with an IC50 value less than 30 μM were deemed to be active.; Not Active: Compounds with an IC50 value less than 30 μM were deemed to be active. The method, then: as §1, §2

T1 sequence (P25440 344-453 limits assumed): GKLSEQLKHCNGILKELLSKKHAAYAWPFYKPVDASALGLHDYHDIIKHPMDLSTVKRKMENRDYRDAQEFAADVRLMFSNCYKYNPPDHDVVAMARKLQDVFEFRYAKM

`Cc1noc(C)c1-c1ccc(=O)n([C@@H](C)c2ccc(F)cc2)c1` (single isomer, unassigned) [Example 110]: in experiment [1], the “FRET activity (IC50 <30 μM) BRD2(2)” value was “Active”. In addition, in experiment [2], the “FRET activity (IC50 <30 μM) BRD4(1)” value is on record as “Active”.

For `Cc1noc(C)c1-c1ccc(=O)n(Cc2ncccn2)n1` [Example 3, 6-(3,5-Dimethylisoxazol-4-yl)-2-(pyrimidin-2-ylmethyl)pyridazin-3(2H)-one], the “FRET activity (IC50 <30 μM) BRD2(2)” value in experiment [1] is “Active”. Further, the “FRET activity (IC50 <30 μM) BRD4(1)” value in experiment [2] was “Not Active”.

For `Cc1noc(C)c1-c1cnc(=O)n(Cc2ccccc2)c1` [Example 8, 1-Benzyl-5-(3,5-dimethylisoxazol-4-yl)pyrimidin-2(1H)-one], the “FRET activity (IC50 <30 μM) BRD2(2)” value in experiment [1] is “Active”. In addition, the “FRET activity (IC50 <30 μM) BRD4(1)” value in experiment [2] is given as “Active”.

For `Cc1noc(C)c1-c1ccc(=O)n(Cc2ccc(CN(C)C)cc2)c1` [Example 9, 1-(4-((Dimethylamino)methyl)benzyl)-5-(3,5-dimethylisoxazol-4-yl)pyridin-2(1H)-one hydrochloric acid], in experiment [1], the “FRET activity (IC50 <30 μM) BRD2(2)” value is “Active”. Further, in experiment [2], the “FRET activity (IC50 <30 μM) BRD4(1)” value is given as “Active”.

For the molecule `Cc1noc(C)c1-c1ccc(=O)n(CC2CCNCC2)c1` [Example 10, 5-(3,5-Dimethylisoxazol-4-yl)-1-(piperidin-4-ylmethyl)pyridin-2(1H)-one hydrochloric acid], in experiment [1], the “FRET activity (IC50 <30 μM) BRD2(2)” value was “Active”. Also, the “FRET activity (IC50 <30 μM) BRD4(1)” value in experiment [2] is “Active”.

In the case of `Cc1noc(C)c1Cn1cc(-c2c(C)noc2C)ccc1=O` [Example 11, 5-(3,5-Dimethylisoxazol-4-yl)-1-((3,5-dimethylisoxazol-4-yl)methyl)pyridin-2(1H)-one], in experiment [1], the “FRET activity (IC50 <30 μM) BRD2(2)” value is reported as “Active”. Further, the “FRET activity (IC50 <30 μM) BRD4(1)” value in experiment [2] is “Active”.

`Cc1cc(=O)n(Cc2ccccc2)cc1-c1c(C)noc1C` [Example 12, 1-Benzyl-5-(3,5-dimethylisoxazol-4-yl)-4-methylpyridin-2(1H)-one]: the “FRET activity (IC50 <30 μM) BRD2(2)” value in experiment [1] was “Active”. For the same molecule, the “FRET activity (IC50 <30 μM) BRD4(1)” value in experiment [2] is “Active”.

With `Cc1noc(C)c1-c1ccc(=O)n(Cc2ccc3nccnc3c2)c1` [Example 18, 5-(3,5-Dimethylisoxazol-4-yl)-1-(quinoxalin-6-ylmethyl)pyridin-2(1H)-one], the “FRET activity (IC50 <30 μM) BRD2(2)” value in experiment [1] is on record as “Active”. In experiment [2], the “FRET activity (IC50 <30 μM) BRD4(1)” value was “Active”.

Consider `Cc1oncc1-c1cc(C)c(=O)n(Cc2ccccc2)n1` [Example 20, 2-Benzyl-4-methyl-6-(5-methylisoxazol-4-yl)pyridazin-3(2H)-one], for which the “FRET activity (IC50 <30 μM) BRD2(2)” value in experiment [1] is “Active”. Besides, the “FRET activity (IC50 <30 μM) BRD4(1)” value in experiment [2] is listed as “Not Active”.

With `Cc1noc(C)c1-c1ccc(=O)n(Cc2cccc(Cl)c2)n1` [Example 23, 2-(3-Chlorobenzyl)-6-(3,5-dimethylisoxazol-4-yl)pyridazin-3(2H)-one], the “FRET activity (IC50 <30 μM) BRD2(2)” value in experiment [1] is listed as “Active”. Besides, in experiment [2], the “FRET activity (IC50 <30 μM) BRD4(1)” value was “Active”.

Regarding `Cc1noc(C)c1-c1ccc(=O)n(Cc2cccc(C(F)(F)F)c2)n1` [Example 31, 6-(3,5-Dimethylisoxazol-4-yl)-2-(3-(trifluoromethyl)benzyl)pyridazin-3(2H)-one], the “FRET activity (IC50 <30 μM) BRD2(2)” value in experiment [1] is given as “Active”. In addition, the “FRET activity (IC50 <30 μM) BRD4(1)” value in experiment [2] is listed as “Active”.

In the case of `Cc1cc(F)cc(Cn2nc(-c3c(C)noc3C)ccc2=O)c1` [Example 32, 6-(3,5-Dimethylisoxazol-4-yl)-2-(3-fluoro-5-methylbenzyl)pyridazin-3(2H)-one], the “FRET activity (IC50 <30 μM) BRD2(2)” value in experiment [1] was “Active”. In experiment [2], the “FRET activity (IC50 <30 μM) BRD4(1)” value was “Not Active”.

With `COc1ccc(Cn2nc(-c3c(C)noc3C)ccc2=O)cc1` [Example 33, 6-(3,5-Dimethylisoxazol-4-yl)-2-(4-methoxybenzyl)pyridazin-3(2H)-one], the “FRET activity (IC50 <30 μM) BRD2(2)” value in experiment [1] is “Active”. In experiment [2], the “FRET activity (IC50 <30 μM) BRD4(1)” value is on record as “Active”.

Turning to `COc1cccc(Cn2nc(-c3c(C)noc3C)ccc2=O)c1` [Example 35, 6-(3,5-Dimethylisoxazol-4-yl)-2-(3-methoxybenzyl)pyridazin-3(2H)-one], in experiment [1], the “FRET activity (IC50 <30 μM) BRD2(2)” value is “Active”. Besides, the “FRET activity (IC50 <30 μM) BRD4(1)” value in experiment [2] is given as “Active”.

Turning to `Cc1noc(C)c1-c1ccc(=O)n(Cc2cccc(OC(F)(F)F)c2)n1` [Example 36, 6-(3,5-Dimethylisoxazol-4-yl)-2-(3-(trifluoromethoxy)benzyl)pyridazin-3(2H)-one], the “FRET activity (IC50 <30 μM) BRD2(2)” value in experiment [1] is on record as “Active”. For the same molecule, in experiment [2], the “FRET activity (IC50 <30 μM) BRD4(1)” value is on record as “Active”.

With `Cc1noc(C)c1-c1ccc(=O)n(CC2CCOCC2)n1` [Example 37, 6-(3,5-Dimethylisoxazol-4-yl)-2-((tetrahydro-2H-pyran-4-yl)methyl)pyridazin-3(2H)-one], in experiment [1], the “FRET activity (IC50 <30 μM) BRD2(2)” value is “Active”. In experiment [2], the “FRET activity (IC50 <30 μM) BRD4(1)” value is recorded as “Active”.

Turning to `Cc1noc(C)c1-c1ccc(=O)n(Cc2ccccc2OC(F)(F)F)c1` [Example 40, 5-(3,5-Dimethylisoxazol-4-yl)-1-(2-(trifluoromethoxy)benzyl)pyridin-2(1H)-one], in experiment [1], the “FRET activity (IC50 <30 μM) BRD2(2)” value was “Active”. For the same molecule, the “FRET activity (IC50 <30 μM) BRD4(1)” value in experiment [2] was “Active”.

On to `Cc1ccc(Cn2cc(-c3c(C)noc3C)ccc2=O)cc1` [Example 41, 5-(3,5-Dimethylisoxazol-4-yl)-1-(4-methylbenzyl)pyridin-2(1H)-one], for which the “FRET activity (IC50 <30 μM) BRD2(2)” value in experiment [1] is “Active”. Besides, the “FRET activity (IC50 <30 μM) BRD4(1)” value in experiment [2] is given as “Active”.

Consider `Cc1noc(C)c1-c1ccc(=O)n(CC2CC2)n1` [Example 45, 2-(Cyclopropylmethyl)-6-(3,5-dimethylisoxazol-4-yl)pyridazin-3(2H)-one], for which the “FRET activity (IC50 <30 μM) BRD2(2)” value in experiment [1] is “Active”. Besides, the “FRET activity (IC50 <30 μM) BRD4(1)” value in experiment [2] was “Active”.

For the molecule `Cc1noc(C)c1-c1ccc(=O)n(CC2CC2)c1` [Example 48, 1-(Cyclopropylmethyl)-5-(3,5-dimethylisoxazol-4-yl)pyridin-2(1H)-one], the “FRET activity (IC50 <30 μM) BRD2(2)” value in experiment [1] is given as “Active”. The “FRET activity (IC50 <30 μM) BRD4(1)” value in experiment [2] is “Active”.

Consider `Cc1oncc1-c1ccc(=O)n(Cc2ccccc2)c1` [Example 57, 1-Benzyl-5-(5-methylisoxazol-4-yl)pyridin-2(1H)-one], for which the “FRET activity (IC50 <30 μM) BRD2(2)” value in experiment [1] is on record as “Active”. For the same molecule, in experiment [2], the “FRET activity (IC50 <30 μM) BRD4(1)” value is on record as “Active”.

Turning to `O=c1ccc(-c2cnoc2)cn1Cc1ccccc1` [Example 58, 1-Benzyl-5-(isoxazol-4-yl)pyridin-2(1H)-one], the “FRET activity (IC50 <30 μM) BRD2(2)” value in experiment [1] is given as “Active”. The “FRET activity (IC50 <30 μM) BRD4(1)” value in experiment [2] is recorded as “Not Active”.

In the case of `O=c1ccc(-c2cnsc2)cn1Cc1ccccc1` [Example 59, 1-Benzyl-5-(isothiazol-4-yl)pyridin-2(1H)-one], the “FRET activity (IC50 <30 μM) BRD2(2)” value in experiment [1] is “Active”. Further, the “FRET activity (IC50 <30 μM) BRD4(1)” value in experiment [2] is given as “Not Active”.

As for `Cc1noc(C)c1Nc1ccc(=O)n(Cc2ccccc2)n1` [Example 61], the “FRET activity (IC50 <30 μM) BRD2(2)” value in experiment [1] is “Active”. The “FRET activity (IC50 <30 μM) BRD4(1)” value in experiment [2] is listed as “Active”.

As for `O=c1ccc(-c2ccnc(O)c2)cn1Cc1ccccc1` [Example 62, 1-Benzyl-2′-hydroxy-[3,4′-bipyridin]-6(1H)-one], the “FRET activity (IC50 <30 μM) BRD2(2)” value in experiment [1] was “Active”. For the same molecule, the “FRET activity (IC50 <30 μM) BRD4(1)” value in experiment [2] is “Not Active”.

Regarding `Cc1noc(C)c1-c1cc(C2CC2)c(=O)n(Cc2ccccc2)c1` [Example 67, 1-Benzyl-3-cyclopropyl-5-(3,5-dimethylisoxazol-4-yl)pyridin-2(1H)-one], the “FRET activity (IC50 <30 μM) BRD2(2)” value in experiment [1] was “Active”. Besides, in experiment [2], the “FRET activity (IC50 <30 μM) BRD4(1)” value is “Active”.

Take `Cc1noc(C)c1-c1ccc(=O)n(C(=O)c2ccc(F)cc2)c1` [Example 68, 5-(3,5-Dimethylisoxazol-4-yl)-1-(4-fluorobenzoyl)pyridin-2(1H)-one]: the “FRET activity (IC50 <30 μM) BRD2(2)” value in experiment [1] is listed as “Active”. In addition, the “FRET activity (IC50 <30 μM) BRD4(1)” value in experiment [2] is recorded as “Active”.

As to `Cc1noc(C)c1-c1ccc(=O)n(C(=O)c2ccc(Cl)cc2)c1` [Example 69, 1-(4-Chlorobenzoyl)-5-(3,5-dimethylisoxazol-4-yl)pyridin-2(1H)-one], the “FRET activity (IC50 <30 μM) BRD2(2)” value in experiment [1] is “Active”. For the same molecule, the “FRET activity (IC50 <30 μM) BRD4(1)” value in experiment [2] is given as “Active”.

Regarding `Cc1noc(C)c1-c1cc(N)c(=O)n(C(C)c2ccc(C#N)cc2)c1` (stereo not drawn) [Example 269, 4-(1-(3-amino-5-(3,5-dimethylisoxazol-4-yl)-2-oxopyridin-1(2H)-yl)ethyl)benzonitrile], the “FRET activity (IC50 <30 μM) BRD4(1)” value in experiment [2] is given as “Not Active”.
